# Assay results reported in ChEMBL document CHEMBL1201862, “PubChem BioAssay data set” (2004).
#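 Briefly, cells in 96-well plates were exposed to five compound concentrations for 48 h, and endpoints were estimated by linear interpolation. GI50 marks 50% less growth.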 Calls of active or inactive are those of the source. Cut-off read from the data, not from the text of the source: active = GI50 up to about 1.1 µM and inactive = higher.
# What was measured:
# Assay in all cases: NCI anticancer screen, dose series, 48 h
# MDA-MB-435 = tested on: MDA-MB-435
# SK-MEL-2 = tested on: SK-MEL-2
# HOP-62 = tested on: HOP-62
# MDA-N = tested on: MDA-N
# U-251 = tested on: U-251
# IGROV-1 = tested on: IGROV-1
# BT-549 = tested on: BT-549
# OVCAR-8 = tested on: OVCAR-8
# NCI-H522 = tested on: NCI-H522
# SK-OV-3 = tested on: SK-OV-3
# SNB-75 = tested on: SNB-75
# NCI-H226 = tested on: NCI-H226
# TK-10 = tested on: TK-10
# SK-MEL-28 = tested on: SK-MEL-28
# SF-295 = tested on: SF-295
# COLO 205 = tested on: COLO 205
# SK-MEL-5 = tested on: SK-MEL-5
# HT-29 = tested on: HT-29
# OVCAR-5 = tested on: OVCAR-5
Compound,GI50 (MDA-MB-435),GI50 (SK-MEL-2),GI50 (HOP-62),GI50 (MDA-N),GI50 (U-251),GI50 (IGROV-1),GI50 (BT-549),GI50 (OVCAR-8),GI50 (NCI-H522),GI50 (SK-OV-3),GI50 (SNB-75),GI50 (NCI-H226),GI50 (TK-10),GI50 (SK-MEL-28),GI50 (SF-295),GI50 (COLO 205),GI50 (SK-MEL-5),GI50 (HT-29),GI50 (OVCAR-5)
Cn1c(-c2ccc[se]2)ccc1-c1ccc(C=O)[se]1,11.4 µM (inactive),65.3 µM (inactive),0.385 µM (active),6.34 µM (inactive),0.0811 µM (active),0.122 µM (active),17.1 µM (inactive),6.98 µM (inactive),16.4 µM (inactive),16.6 µM (inactive),23 µM (inactive),0.865 µM (active),0.124 µM (active),42.1 µM (inactive),12.4 µM (inactive),16.3 µM (inactive),20.7 µM (inactive),10.8 µM (inactive),0.0418 µM (active)
O=C1NC(c2ccccc2)C1N(Cc1ccccc1)Cc1ccccc1 (centres undefined),> 100 µM (inactive),> 100 µM (inactive),> 100 µM (inactive),> 100 µM (inactive),> 100 µM (inactive),> 100 µM (inactive),> 100 µM (inactive),> 100 µM (inactive),> 100 µM (inactive),> 100 µM (inactive),25.5 µM (inactive),> 100 µM (inactive),> 100 µM (inactive),> 100 µM (inactive),> 100 µM (inactive),> 100 µM (inactive),> 100 µM (inactive),> 100 µM (inactive),> 100 µM (inactive)
S=C1Cc2cc3ccccc3nc2-c2ccccc2N1,29.7 µM (inactive),36.7 µM (inactive),11.6 µM (inactive),5.13 µM (inactive),13.7 µM (inactive),29 µM (inactive),> 33.8 µM (inactive),11.9 µM (inactive),24.9 µM (inactive),5.68 µM (inactive),7.24 µM (inactive),16.1 µM (inactive),24.3 µM (inactive),27.5 µM (inactive),22.7 µM (inactive),54 µM (inactive),44.8 µM (inactive),> 47.2 µM (inactive),51.2 µM (inactive)
Cc1ccc(C(=O)CCl)o1,3.25 µM (inactive),> 10 µM (inactive),> 10 µM (inactive),> 7.08 µM (inactive),> 10 µM (inactive),> 9.68 µM (inactive),5.3 µM (inactive),> 4.5 µM (inactive),2.92 µM (inactive),> 10 µM (inactive),> 9.46 µM (inactive),> 10 µM (inactive),6.9 µM (inactive),> 10 µM (inactive),> 10 µM (inactive),3.01 µM (inactive),> 7.96 µM (inactive),4.71 µM (inactive),> 5.6 µM (inactive)
CSc1nc(N)c(NC2OC(CO)C(O)C2O)c(=O)[nH]1 (centres undefined),> 100 µM (inactive),> 100 µM (inactive),> 100 µM (inactive),> 100 µM (inactive),> 100 µM (inactive),> 100 µM (inactive),> 100 µM (inactive),> 100 µM (inactive),> 100 µM (inactive),> 100 µM (inactive),> 100 µM (inactive),> 100 µM (inactive),> 100 µM (inactive),> 100 µM (inactive),> 100 µM (inactive),> 100 µM (inactive),> 100 µM (inactive),> 100 µM (inactive),> 100 µM (inactive)
CC1(C)C(C(=O)OC(C#N)c2cccc(OCC(=O)OCc3ccccc3)c2)C1(C)C (centres undefined),> 100 µM (inactive),20.4 µM (inactive),> 100 µM (inactive),> 100 µM (inactive),> 100 µM (inactive),> 100 µM (inactive),> 100 µM (inactive),35.2 µM (inactive),> 100 µM (inactive),> 100 µM (inactive),41.5 µM (inactive),> 100 µM (inactive),> 100 µM (inactive),63.2 µM (inactive),> 100 µM (inactive),> 100 µM (inactive),> 100 µM (inactive),> 100 µM (inactive),> 100 µM (inactive)
CCCCCCNC(=S)N/N=C(\C)c1ccccn1,1.53 µM (inactive),3.09 µM (inactive),0.0445 µM (active),0.904 µM (active),0.2 µM (active),< 0.01 µM (active),0.111 µM (active),0.0912 µM (active),0.06 µM (active),0.181 µM (active),3.99 µM (inactive),0.138 µM (active),0.55 µM (active),2.56 µM (inactive),0.407 µM (active),< 0.01 µM (active),0.299 µM (active),,0.728 µM (active)
C[C@]12CC[C@H]3[C@@H](CCC4=C[C@@H](OC5OCC(OC6OC(CO)C(O)C(O)C6O)C(O)C5O)CC[C@@]43C=O)[C@@]1(O)CCC2C1=CC(=O)OC1 (some centres undefined),0.843 µM (active),1.62 µM (inactive),0.431 µM (active),1.01 µM (active),0.849 µM (active),0.351 µM (active),0.211 µM (active),0.931 µM (active),0.203 µM (active),1.13 µM (inactive),1.4 µM (inactive),2.15 µM (inactive),0.681 µM (active),2.57 µM (inactive),0.638 µM (active),1.35 µM (inactive),0.385 µM (active),0.832 µM (active),1.86 µM (inactive)
NC(=O)c1cc2ccc(O)cc2o/c1=N/NC(=O)c1ccccc1,74.3 µM (inactive),28.2 µM (inactive),> 100 µM (inactive),72.8 µM (inactive),> 100 µM (inactive),46.7 µM (inactive),52.2 µM (inactive),67.8 µM (inactive),42.3 µM (inactive),61.2 µM (inactive),25.9 µM (inactive),39.4 µM (inactive),36.1 µM (inactive),76.4 µM (inactive),> 100 µM (inactive),> 100 µM (inactive),39.8 µM (inactive),> 100 µM (inactive),> 100 µM (inactive)
CC(=O)/C(=N\N=C(N)N)c1ccccc1,> 100 µM (inactive),> 100 µM (inactive),> 100 µM (inactive),> 100 µM (inactive),> 100 µM (inactive),> 100 µM (inactive),> 100 µM (inactive),> 100 µM (inactive),59.8 µM (inactive),> 100 µM (inactive),> 100 µM (inactive),> 100 µM (inactive),> 100 µM (inactive),> 100 µM (inactive),> 100 µM (inactive),35.1 µM (inactive),> 100 µM (inactive),> 100 µM (inactive),> 100 µM (inactive)
COC(=O)C1(Cc2ccccc2)Cc2ccc3c(c2C1=O)CCC3 (centres undefined),24.9 µM (inactive),18.1 µM (inactive),> 74.6 µM (inactive),26.2 µM (inactive),36.1 µM (inactive),> 72.9 µM (inactive),2.24 µM (inactive),59.6 µM (inactive),20.8 µM (inactive),> 80.4 µM (inactive),22.6 µM (inactive),> 55.6 µM (inactive),> 47.5 µM (inactive),> 70.6 µM (inactive),> 46.2 µM (inactive),27.8 µM (inactive),18.5 µM (inactive),29 µM (inactive),> 63 µM (inactive)
COc1ccc(/C=C2\N=C(N3CCCCC3)NC2=O)cc1,> 100 µM (inactive),> 100 µM (inactive),> 100 µM (inactive),59 µM (inactive),> 100 µM (inactive),> 100 µM (inactive),> 100 µM (inactive),> 100 µM (inactive),57.4 µM (inactive),> 100 µM (inactive),37.2 µM (inactive),> 100 µM (inactive),> 100 µM (inactive),> 100 µM (inactive),> 100 µM (inactive),> 100 µM (inactive),,> 100 µM (inactive),> 100 µM (inactive)
C[C@]12CC(c3ccccc3O1)C(C(N)=O)C(=O)N2 (some centres undefined),> 100 µM (inactive),> 100 µM (inactive),> 100 µM (inactive),> 100 µM (inactive),> 100 µM (inactive),> 100 µM (inactive),> 100 µM (inactive),> 100 µM (inactive),> 100 µM (inactive),> 100 µM (inactive),> 100 µM (inactive),> 100 µM (inactive),,> 100 µM (inactive),,> 100 µM (inactive),> 100 µM (inactive),> 100 µM (inactive),> 100 µM (inactive)
Cc1ccc(C)c2c1n1c(=O)n(C)c(=O)n21,> 100 µM (inactive),> 100 µM (inactive),,> 100 µM (inactive),> 100 µM (inactive),> 100 µM (inactive),> 100 µM (inactive),> 100 µM (inactive),> 100 µM (inactive),> 100 µM (inactive),> 100 µM (inactive),> 100 µM (inactive),> 100 µM (inactive),> 100 µM (inactive),> 100 µM (inactive),> 100 µM (inactive),> 100 µM (inactive),> 100 µM (inactive),> 100 µM (inactive)
CN1CC=C(c2c(N)nc(N)[nH]c2=O)CC1,> 100 µM (inactive),> 100 µM (inactive),> 100 µM (inactive),> 100 µM (inactive),> 100 µM (inactive),> 100 µM (inactive),> 100 µM (inactive),> 100 µM (inactive),> 100 µM (inactive),> 100 µM (inactive),65.6 µM (inactive),> 100 µM (inactive),,> 100 µM (inactive),> 100 µM (inactive),> 100 µM (inactive),> 100 µM (inactive),> 100 µM (inactive),> 100 µM (inactive)
